Measurements from patent US20080262008A1, “CRYSTALLINE FORMS AND POLYMORPHS OF N-(3-(DIMETHYLAMINO)PROPYL)-4-(4-(3-FLUORO-4-METHOXYPHENYL) PYRIMIDIN-2-YLAMINO) BENZENESULFONAMIDE AS SUCCINATE SALTS” (Wyeth, priority 2007, published 2008).

Columns and labels:
water solubility = format: physicochemical
[1] = solubility of the free base in solvents; format: physicochemical; details: free base form
Experimental: For example, acetone is needed to dissolve the free base at 50° C. […] HCl, phosphoric acid, tartaric acid, acetic acid, D-glucoronic acid and succinic acid were used to prepare pharmaceutically acceptable salts of compound 3. One crystalline form of compound 3 as a mono-succinate salt and five crystalline polymorphs of compound 3 as a hemi-succinate salt are provided in the Examples.

| Solubility in water (water solubility; free base, thermogravimeteric method) | solubility in THF, DMSO and DMF [1] | solubility in group 3 solvents, including water [1] | water solubility (stated in words) (water solubility) | SMILES |
| --- | --- | --- | --- | --- |
| not detectable | high | low | – | COc1ccc(-c2ccnc(Nc3ccc(S(=O)(=O)NCCCN(C)C)cc3)n2)cc1F [Compound 3, N-(3-(dimethylamino)propyl)-4-(4-(3-fluoro-4-methoxyphenyl)pyrimidin-2-ylamino)benzenesulfonamide] |
| – | – | – | water soluble | COc1ccc(-c2ccnc(Nc3ccc(S(=O)(=O)NCCCN(C)C)cc3)n2)cc1F.O=C(O)CCC(=O)O [Example 1, Mono-Succinate Salt of N-(3-(dimethylamino)propyl)-4-(4-(3-fluoro-4-methoxyphenyl)pyrimidin-2-ylamino)benzenesulfonamide] |
